{
  "source": "patent US20150057316A1",
  "about": "“NOVEL SULFONATE-BASED TRIMEBUTINE SALTS” (GICARE PHARMA INC., priority 2012, published 2015)",
  "key": {"male Balb/C mice": {"tested_on": "male Balb/C mice", "experiment": "preliminary toxicological evaluation following i.p. administration in mice", "format": "in vivo", "conditions": "50 mg/kg i.p.", "method": "A preliminary toxicological evaluation of the compound was done in 6-8 week old male Balb/C mice. […] Following administration of the test article, animals were observed hr for the first 8 hr post-dosing for clinical signs and twice daily thereafter until termination on Day 7. Body weights were determined on Days 1, 2, 3 and 7. Three mice were sacrificed by exsanguination at 24 hr post dosing or on Day 7, and a gross necropsy was performed in all animals. Particular attention was paid to the abdominal, thoracic and cranial cavities for reporting of any unusual observations."}, "Beagle dogs [1]": {"tested_on": "Beagle dogs", "experiment": "i.v./p.o. cross over study in dogs, toxicological assessment", "format": "in vivo", "conditions": "2 mg/kg i.v. or 10 mg/kg p.o.", "method": "(§1) Trimebutine 3-thiocarbamoyl-benzenesulfonate was administered as a cross over design once, each dosing separated by at least a 7-day washout period. During this study, assessments included mortality checks, clinical observations, and body weights. Feces and urine samples were collected up to 48 hr post-administration. Blood samples were also collected for pharmacokinetic evaluations on Days 1 and 8 at 10 time points. Pharmacokinetic data are presented in the two following Figures."}, "[2]": {"experiment": "recovery of counter-ion and metabolites in urine and feces of dogs", "format": "in vivo", "conditions": "for mean total recovery of the unchanged counter-ion: urine and feces up to 48 hr", "method": "as §1\nAfter proper preparation of the urine and feces samples, 3-thiocarbamoyl-benzenesulfonate counter-ion and its two potential metabolites (3-cyanobenzenesulfonate and 3-sulfobenzoate) were assessed using a LC/MS/MS method, with analysis by MRM, ESI-. Calibration curves were prepared for each analyte in blank feces homogenate, following the same procedure."}, "Sprague-Dawley rats": {"tested_on": "Sprague-Dawley rats", "experiment": "single dose acute and 7-day range-finding oral toxicity study in rats", "format": "in vivo", "method": "Consequently, a single dose acute and 7-day range-finding oral toxicity study in Sprague-Dawley rats was conducted. During the single dose acute phase of the study, the test article was administered as a single dose by oral gavage to groups of 3 male and 3 female Sprague-Dawley rats, each group receiving a higher or lower dose level, based on the reaction of the previous group during the first day of the observation period.\nUpon completion of the 7-day treatment period, all animals were euthanized and subjected to a gross necropsy examination (Day 8 study). Clinical signs (ill health, behavioral changes, etc.) were recorded on all surviving animals. Clinical pathology evaluations (hematology, clinical chemistry and coagulation parameters) were performed on all surviving animals (single dose acute & range-finding phases) prior to their scheduled necropsy. Blood samples were collected terminally from the abdominal aorta (while anesthetized with isoflurane)."}, "[3]": {"experiment": "accelerated stability protocol", "format": "physicochemical", "conditions": "Polymorph B, 40±2° C., 75±5% RH, six months", "method": "The long-term stability of Example 20 was assessed using an accelerated stability protocol. For this purpose, samples of Example 20—Polymorph B was placed in borosilicate vials polyethylene plastic bags, sealed in an aluminum bag, and placed in a fiber drum with desiccant. The samples where then subjected to 40±2° C. with 75±5% relative humidity (RH), and stability was monitored at time 0, 1, 2, 3 and 6 months using a standardized HPLC method."}, "Beagle dogs [4]": {"tested_on": "Beagle dogs", "experiment": "MTD determination following p.o. administration in dogs", "format": "in vivo", "method": "For MTD determination, the compound was administered once on each occasion by oral gavage, in an incremental fashion to animals, until the maximum tolerated dose is considered to have been reached. This dose was established at 2,000 mg/kg, i.e., the highest dose administered in animals. […] The animal was back to normal activity levels approximately 1 hr post dosing."}, "[5]": {"tested_on": "colorectal distension induced pain", "experiment": "electromyographic colorectal distension (CRD) induced pain model", "format": "in vivo, mice", "conditions": "for VMR response to colorectal distension compared to the control group: mice, 30 and 60 mg/kg oral", "text": "The purpose was to evaluate the antinociceptive effects of Example 20 in an electromyographic colorectal distension (CRD) induced pain model. This model is recognized by experts in the field to be less subjective than the rat Abdominal Withdrawal Response (AWR) colorectal distension model, and has been used to assess the analgesic and sedative properties of several new compounds, including IBS drugs Zhuo, M; Gebhart, G. F. Facilitation and attenuation of a visceral nociceptive reflex from the rostroventral medulla in the rat. Gastroenterology, 2002, 122 1007-1019; Larsson, M. H.; Rapp, L.; Lindström, E. Effect of DSS-induced colitis on visceral sensitivity to colorectal distension in mice. Neurogastroenterology & Motility, 2006, 18, 144-152; Arvidsson, S.; Larsson, M.; Larsson, H.; Lindström, E.; Martinez, V. J. Pain, 2006, 7, 108-118; Jones, R. C. W.; Gebhart, G. F. Models of Visceral Pain: Colorectal Distension (CRD). Currrent Protocols in Pharmacology, 2004, 5.36, DOI: 10.1002/0471141755.ph0536s25.]\nThree groups of 10 male mice (C57Bl6) were used: 2 groups received treatments with […] and one group received their vehicle […].\nThe groups were divided as follows: • i. 2 groups of 10 mice received an oral administration of Example 20 at two doses, 30 and 60 mg/kg. • ii. 1 group of 10 mice received an oral administration of the vehicle (PEG 200) use to administer Example 20.\nAll groups were implanted with electrodes in the abdominal external oblique musculature under anaesthesia. The surgery for electrode implantation was performed 5 days before the day of the experiment. The day of the experiment, colorectal distension (CRD) was performed in all animals, by inserting a balloon (10-mm long) into the colon, at 5 mm from the anus. The balloon was inflated with warm water, in a stepwise manner, from 0 to 60 mm Hg, with 15 mm Hg increments. […] At various times after these treatments: 2, 4 and 6-hours, the same series of stepwise CRD were performed and electromyographic responses (VMR in millivolts/sec) were recorded."}},
  "data": [
    {"smiles": "CCC(COC(=O)c1cc(OC)c(OC)c(OC)c1)(c1ccccc1)N(C)C.NC(=S)c1cccc(S(=O)(=O)O)c1", "note": "(stereo not shown) [Example 20]", "values": [
      {"measurement": "tolerability", "setting": "male Balb/C mice", "value": "well-tolerated"},
      {"measurement": "macroscopic finding at gross necropsy", "setting": "male Balb/C mice; 24 hr or Day 7", "value": "no significant macroscopic finding"},
      {"measurement": "clinical signs", "setting": "male Balb/C mice; 7 days", "value": "no clinical signs were noted"},
      {"measurement": "mortality", "setting": "male Balb/C mice; 7 days", "value": "no mortality"},
      {"measurement": "body weights", "setting": "male Balb/C mice; Days 1, 2, 3 and 7", "value": "remained stable"},
      {"measurement": "bodyweight", "setting": "Beagle dogs [1]", "value": "no change in bodyweight"},
      {"measurement": "death", "setting": "Beagle dogs [1]", "value": "no death reported"},
      {"measurement": "toxicity", "setting": "Beagle dogs [1]", "value": "no indication of any toxicity"},
      {"measurement": "additional recovery as metabolite 3-cyanobenzenesulfonate", "setting": "[2]; 2 mg/kg i.v.", "value": 4.7, "unit": "%"},
      {"measurement": "recovery associated to 3-sulfobenzoate", "setting": "[2]; 2 mg/kg i.v.", "value": 0.6, "unit": "%"},
      {"measurement": "mean total recovery of the unchanged counter-ion", "setting": "[2]; 2 mg/kg i.v.", "value": "about 72%"},
      {"measurement": "3-sulfobenzoate in urine", "setting": "[2]; 10 mg/kg p.o.", "value": "not detected"},
      {"measurement": "additional recovery as metabolite 3-cyanobenzenesulfonate", "setting": "[2]; 10 mg/kg p.o.", "value": 14.5, "unit": "%"},
      {"measurement": "recovery associated to 3-sulfobenzoate", "setting": "[2]; 10 mg/kg p.o.", "value": 1.7, "unit": "%"},
      {"measurement": "mean total recovery of the unchanged counter-ion", "setting": "[2]; 10 mg/kg p.o.", "value": "about 61%"},
      {"measurement": "dose well tolerated over 7 days without significant clinical signs of toxicity", "setting": "Sprague-Dawley rats; male and female rats, once daily oral gavage, 7 days", "value": "1,000 mg/kg"},
      {"measurement": "death and clinical signs of toxicity", "setting": "Sprague-Dawley rats; male and female rats, single oral dose up to 2,000 mg/kg", "value": "no death and no significant clinical signs of toxicity"},
      {"measurement": "single dose well-tolerated", "setting": "Sprague-Dawley rats; male and female rats, single oral gavage", "value": "up to 2,000 mg/kg"},
      {"measurement": "deaths during 7-day repeat dose regimen", "setting": "Sprague-Dawley rats; rats, 2,000 mg/kg once daily p.o., deaths after 3 and 5 days", "value": "two animals from the 2,000 mg/kg dose group died"},
      {"measurement": "HPLC purity after storage", "setting": "[3]", "value": "> 99.7", "unit": "%"},
      {"measurement": "degradation", "setting": "[3]", "value": "no degradation had been observed"},
      {"measurement": "clinical observations, male dog", "setting": "Beagle dogs [4]; 2,000 mg/kg p.o.", "value": "limited to vomiting a few min following dosing administration"},
      {"measurement": "clinical signs, female dog", "setting": "Beagle dogs [4]; 2,000 mg/kg p.o.", "value": "Decreased activity level, vomiting, bowel movement, yellowish fluid fecal consistency, vocalization about 15-20 min post-dose, decreased respiration, weak behavior, eyes partially closed, and mild transient tremors"},
      {"measurement": "blood pressure, male dog", "setting": "Beagle dogs [4]; 2,000 mg/kg p.o., 30 min post dose compared to pre-dose", "value": "dropped slightly"},
      {"measurement": "blood pressure, female dog", "setting": "Beagle dogs [4]; 2,000 mg/kg p.o., approximately 30 min post dose", "value": "almost no change in blood pressure"},
      {"measurement": "time back to normal activity levels, female dog", "setting": "Beagle dogs [4]; 2,000 mg/kg p.o., post dosing", "value": "approximately 1 hr"},
      {"measurement": "doses orally administered well tolerated", "setting": "Beagle dogs [4]; Beagle dogs, oral gavage", "value": "up to 2,000 mg/kg"},
      {"measurement": "maximum tolerated dose (MTD)", "setting": "Beagle dogs [4]; Beagle dogs, oral gavage, highest dose administered", "value": "2,000 mg/kg"},
      {"measurement": "antinociceptive effects on colorectal distension induced pain", "setting": "[5]; VMR mouse model, overall conclusion", "value": "significant antinociceptive effects"},
      {"measurement": "VMR response to colorectal distension compared to the control group", "setting": "[5]; after 2 and 4 hours", "value": "overall reduction of the VMR response"},
      {"measurement": "VMR response to colorectal distension compared to the control group", "setting": "[5]; at 6 hours, not statistically different from control", "value": "trend toward efficacy"}
    ]}
  ]
}
